The values that follow are results of earlier work, collected in US8071763B2, “Methods for treatment of nocturia” (Daiichi Sankyo Company, Limited, priority 2002, dated 2011).

The structures appear in SMILES notation. Like-named read-outs stand apart in the source and are kept apart here.

The test system of data set [1] is nocturia. Particulars: 100 mg suppository, open trial, 15 patients; cited from earlier work.
The test system of data set [2] is nocturia. Particulars: one patient; suppository administered as antipyretics; cited from earlier work.

Consider `COc1ccc2c(c1)c(CC(=O)O)c(C)n2C(=O)c1ccc(Cl)cc1` [indomethacin], for which the values for the Effect on nocturia entry in the data set with nocturia [1] and in the data set on nocturia [2] were “improved nocturia in all 15 patients” and “nocturia was improved”, respectively.
